Results taken from patent publication US10434083B2, “Transmammary delivery of cyclooxygenase-2 inhibitors for analgesia in neonates” (Iowa State University Research Foundation, Inc., priority 2018, dated 2019).
Where two headings read alike, the source gives them in different places.

What was measured:
Type in all cases: in vivo, swine
[1] = Plasma firocoxib in nursing piglets after transmammary delivery (Example 1); conditions: piglets nursing sow given 1.5 mg/kg IM; from 2 hours post-exposure to end of study (48 h)
Description: (§1) Blood (sodium heparin tubes) was collected from the sow via jugular venipuncture at the following time points after drug administration via injection to the sow: 0, 1, 2, 3, 4, 6, 8, 10, 12, 24, 36 and 48 hours. The piglets had blood collected via jugular venipuncture at the following timepoints following sow drug administration via injection:
Piglets 1-3 was bled at times 0, 3, 8 and 24 hours
Piglets 4-6 was bled at times 1, 4, 10 and 36 hours
Piglets 7-9 was bled at times 2, 6, 12 and 48 hours.
Approximately 10 mL of blood was collected from the sow at each time point, and approximately 5 mL was collected from each piglet at each time point. Following blood collection at the 48 hour time point, the sow and piglets was euthanized and disposed of per study site procedures. […]
Plasma concentrations of firocoxib were measured with high-pressure liquid chromatography-tandem mass spectrometry (Shimadzu Prominence, Shimadzu Scientific Instruments, Columbia, Md., USA). […]
(§2) The standard curve of firocoxib concentration determined using porcine plasma was linear from 0.020 to 5.0 μg/mL and was accepted when the correlation coefficient exceeded 0.99 and measured values were within 15% of the actual values. The lower limit of quantification, defined as the lowest concentration on a linear standard curve with predicted concentrations within 15% of the actual concentration, was 0.020 μg/mL.

[2] = Preweaning piglet deaths per sow treatment group
Description: Protocols involved intramuscular injection of Firocoxib to lactating sows at either 0.5, 1.0, 1.5 or 2 mg/kg, and analysis in sows and select piglets at 21 days post treatment. Pregnant Yorkshire×Landrace sows (mean±SEM bodyweight, 250.3±7.61 kg) that were approximately 1 week before farrowing were sourced from a commercial swine farm. Each sow was examined by a veterinarian to confirm that she was healthy and pregnant. A unique numerical ear tag (Allflex Global Ear Tags, Allflex USA, Inc., DFW Airport, TX) was placed in the right ear of each sow for identification. The sows were housed in a commercial swine operation at MVS (West Point, Nebr.) in accordance with the recommendations in the Guide for the Care and Use of Agricultural Animals in Agricultural Use and Research and Teaching (Guide for the Care and Use of Agricultural Animals in Agricultural Research and Teaching, 2010). Sows were placed in Quad- or Euro-style farrowing stalls (Thorp Equipment, Thorp, Wis.), depending on availability. Regardless of stall type, each sow was housed in a farrowing crate measuring 0.6 m×2.1 m. Quad and Euro crates had piglet creep areas of 7.0 m^2 and 6.4 m^2, respectively. After farrowing, a heat lamp was provided on one side of the creep area for the piglets in each crate. All sows were fed a diet that met or exceeded National Research Council (NRC, 2012) nutrient requirements and water was provided ad libitum. Each litter provided at least six male and three female piglets for sampling with the exception of one sow that had 5 males and 4 females in the litter, and one sow that had 3 males and 6 females in the litter. Piglets were clinically examined and weighed on Study Day 0 prior to dosing. Cross fostering of the litters was permitted. Bodyweights were used to randomly assign sows to 1 of 4 treatment groups (n=4 sows/group) as detailed in Table 3.
A sample size of 4 sows was selected to describe the pharmacokinetics of firocoxib. For the comparison of plasma cortisol concentrations and average daily gain in bodyweight (ADG), a sample size of 36 piglets/treatment group was calculated to provide Statistical Power of 0.8 assuming an alpha of 0.05, sigma of 0.54 and delta of 0.20. At the time of study commencement (T0), sows received a single dose of firocoxib (Equioxx Injection, Merial, Duluth, Ga.) (Lot number 4VP07, Expiration Date November 2017) administered at either 0.5 mg/kg, 1.0 mg/kg, 1.5 mg/kg, or 2.0 mg/kg by IM injection into the right lateral neck using an 18-gauge, 1.5-inch needle attached to a 20-mL syringe (Table 3). In cases where the calculated dose volume exceeded 20-mL, the remaining volume was administered via IM injection in the left lateral neck muscle.

[3] = Pharmacokinetics of firocoxib in a single sow after IM injection (Example 1); conditions: 1.5 mg/kg IM; for AUC: im, 1.5 mg/kg
Description: The objective of this study was to characterize the pharmacokinetic profile and transmammary delivery of firocoxib in a single sow and her litter when administered via injection to provide analgesia to piglets via the milk prior to routine piglet processing procedures. One crossbred sow and her litter sourced from the MVS-Klitz Farm was used for this project. The sow was in good health, and had not received treatment with anti-inflammatory drugs by any route. The study sow was housed in a farrowing crate. Feed and water was provided ad libitum throughout the study period. No additional medications were provided. Study animals were identified using unique duplicate ear tags and/or tattoos.
There was one treatment group in this study (refer to Table 1). The sow was given firocoxib (20 mg/mL) on Study Day 0. Firocoxib was administered via injection five (+/−2) days post-farrow, at 1.5 mg/kg IM.
as §1
Approximately 10 mL of blood was collected from the sow at each time point, and approximately 5 mL was collected from each piglet at each time point. Following blood collection at the 48 hour time point, the sow and piglets was euthanized and disposed of per study site procedures.
Samples were stored on ice after collection and before processing. Blood samples were centrifuged for 10 minutes at 1,500 g. Collected plasma was placed in duplicate cryovials with a single-use transfer pipette and frozen at −70° C. until analysis. Cryovials were labeled with the time point and collection date.
Plasma concentrations of firocoxib were measured with high-pressure liquid chromatography-tandem mass spectrometry (Shimadzu Prominence, Shimadzu Scientific Instruments, Columbia, Md., USA). Briefly, frozen samples or standards were thawed at room temperature and rigorously vortexed once completely thawed. A 200 μL plasma sample was added to 400 μL 5% Acetic Acid and the internal standard celecoxib (20 μg/mL). The entire diluted sample was added to a 3 mL solid phase extraction tubes (OASIS) which was conditioned prior with methanol (2 ml) and equilibrated with water (2 ml). The sample was then gravity filtered through the solid phase extraction tubes and subsequently washed with 1 ml 5% acetic acid, followed by 1 ml solution of 25% methanol/75% water. Using 2×0.75 mL acetonitrile, firocoxib was eluted into a glass tube and an additional internal standard piroxicam (10 ng/μL) was added. Samples were evaporated to dryness at 48° C. under a stream of nitrogen, reconstituted with […] 25% in water and pipetted into an injection vial for LC-MS/MS analysis with the injection volume set to 10 μL. The mobile phase consisted of acetonitrile and formic acid (0.1%) at a flow rate of 0.4 mL/min. The concentration of this mobile phase began at 85% formic acid (0.1%) from 0 to 0.5 minutes with a linear gradient to 50% formic acid (0.1%) at 2.5 minutes, which was maintained until 3 minutes, followed by a linear gradient to 85% formic acid (0.1%) at 4 minutes with a total run time of 5 minutes.
as §2
Firocoxib time concentration data was analyzed using a commercially available computer software program (Kinetica, Thermo Scientific).

[4] = female, crossbred, swine, plasma

With `CC1(C)OC(=O)C(OCC2CC2)=C1c1ccc(S(C)(=O)=O)cc1` [firocoxib] the “plasma drug concentrations in piglets” value [1] was “above 10 ng/mL”, the “Preweaning piglet deaths, Total” value ([2]; sow treatment group #1, 0.5 mg/kg) was 2 and the “Preweaning piglet deaths, Total” value ([2]; sow treatment group #2, 1.0 mg/kg) was 3. The “Preweaning piglet deaths, Total” value ([2]; sow treatment group #3, 1.5 mg/kg) was 3, the “Preweaning piglet deaths, Total” value ([2]; sow treatment group #4, 2.0 mg/kg) was 0 and the “% AUCextra” value [3] was 33.02%. For the same compound, the AUMCextra [3] was 322.22 μg/mL * (h)^2, the AUMClast [3] was 155.18 μg/mL * (h)^2 and the AUMtot [3] was 477.39 μg/mL * (h)^2. The Clearance [3] was 32.45 L/h, the Vss [3] was 1390.95 L and the Vz [3] was 1285.61 L. For the same compound, the AUC(0-t) ([3]; female, crossbred, pig, plasma) was 7460 ng·h/mL, the MRT ([3]; female, crossbred, pig, plasma) was 42.9 h and the MRT last ([3]; female, crossbred, pig, plasma) was 20.8 h. It also gave a half-life ([3]; female, crossbred, pig, plasma) of 1650 min, an AUC ([3]; female, crossbred, pig, plasma, read-out: AUCextra) of 3680 ng·h/mL and an AUC ([3]; female, crossbred, pig, plasma, read-out: AUCtot) of 11100 ng·h/mL. The Cmax [3, 4] was 287 ng/mL and the Tmax [3, 4] was 6 h.
